According to patent US8324245B2, “Quinoline derivative and quinazoline derivative inhibiting self-phosphorylation of hepatocytus proliferator receptor, and medicinal composition containing the same” (Kyowa Hakko Kirin Co., Ltd., priority 2001, dated 2012):

biological target: T1, met (HGF receptor) in human gastric cancer cells MKN45 (Homo sapiens, UniProt P08581); assay: Inhibitory activity against met-autophosphorylation using ELISA method (2), MKN45 cells, HGF-independent; format: cell-based
T1 construct: endogenous in cells; host or cells: MKN45 human gastric cancer cells
Experimental: Cells were cultured with RPMI medium containing 0.1% fetal calf serum in 96-well flat-bottom plate in an amount of 3×10^4 per well, and were incubated at 37° C. overnight. The medium was then replaced by a fresh RPMI medium containing 0.1% fetal calf serum. A solution of the test compound in dimethyl sulfoxide was added to each well, and the incuvation was continued at 37° C. for additional one hr. The medium was removed, the cells were washed with phosphate buffered saline (pH 7.4), and 50 μl of a lysis buffer (20 mM HEPES (pH 7.4), 150 mM NaCl, 0.2% Triton X-100, 10% glycerol, 5 mM sodium orthovanadylate, 5 mM disodium ethylenediaminetetraacetate, and 2 mM Na4P2O7) was then added thereto. The mixture was shaken at 4° C. for 2 hr to prepare a cell extract.
Separately, phosphate buffered saline (50 μl, pH 7.4) containing 5 μg/ml of anti-phospho-tyrosine antibody (PY20; purchased from Transduction Laboratories) was added to a microplate for ELISA (Maxisorp; purchased from NUNC), followed by gentle agitation at 4° C. overnight to coat the surface of the wells with the antibody. After washing of the plate, 300 μl of a blocking solution was added, followed by gentle agitation at room temperature for 2 hr to perform blocking. After washing, the whole quantity of the cell extract was transferred to the wells, and the plate was then allowed to stand at 4° C. overnight. After washing, an anti-HGF receptor antibody (h-Met (C-12), purchased from Santa Cruz Biotechnology) was allowed to react at room temperature for one hr, and, after washing, a peroxidase-labeled anti-rabbit Ig antibody (purchased from Amersham) was allowed to react at room temperature for one hr. After washing, a chromophoric substrate for peroxidase (purchased from Sumitomo Bakelite Co., Ltd.) was added thereto to initiate a reaction. After a suitable level of color development, a reaction termination solution was added to stop the reaction, and the absorbance at 450 nm was measured with a microplate reader.

T1 sequence (P08581 25-1390): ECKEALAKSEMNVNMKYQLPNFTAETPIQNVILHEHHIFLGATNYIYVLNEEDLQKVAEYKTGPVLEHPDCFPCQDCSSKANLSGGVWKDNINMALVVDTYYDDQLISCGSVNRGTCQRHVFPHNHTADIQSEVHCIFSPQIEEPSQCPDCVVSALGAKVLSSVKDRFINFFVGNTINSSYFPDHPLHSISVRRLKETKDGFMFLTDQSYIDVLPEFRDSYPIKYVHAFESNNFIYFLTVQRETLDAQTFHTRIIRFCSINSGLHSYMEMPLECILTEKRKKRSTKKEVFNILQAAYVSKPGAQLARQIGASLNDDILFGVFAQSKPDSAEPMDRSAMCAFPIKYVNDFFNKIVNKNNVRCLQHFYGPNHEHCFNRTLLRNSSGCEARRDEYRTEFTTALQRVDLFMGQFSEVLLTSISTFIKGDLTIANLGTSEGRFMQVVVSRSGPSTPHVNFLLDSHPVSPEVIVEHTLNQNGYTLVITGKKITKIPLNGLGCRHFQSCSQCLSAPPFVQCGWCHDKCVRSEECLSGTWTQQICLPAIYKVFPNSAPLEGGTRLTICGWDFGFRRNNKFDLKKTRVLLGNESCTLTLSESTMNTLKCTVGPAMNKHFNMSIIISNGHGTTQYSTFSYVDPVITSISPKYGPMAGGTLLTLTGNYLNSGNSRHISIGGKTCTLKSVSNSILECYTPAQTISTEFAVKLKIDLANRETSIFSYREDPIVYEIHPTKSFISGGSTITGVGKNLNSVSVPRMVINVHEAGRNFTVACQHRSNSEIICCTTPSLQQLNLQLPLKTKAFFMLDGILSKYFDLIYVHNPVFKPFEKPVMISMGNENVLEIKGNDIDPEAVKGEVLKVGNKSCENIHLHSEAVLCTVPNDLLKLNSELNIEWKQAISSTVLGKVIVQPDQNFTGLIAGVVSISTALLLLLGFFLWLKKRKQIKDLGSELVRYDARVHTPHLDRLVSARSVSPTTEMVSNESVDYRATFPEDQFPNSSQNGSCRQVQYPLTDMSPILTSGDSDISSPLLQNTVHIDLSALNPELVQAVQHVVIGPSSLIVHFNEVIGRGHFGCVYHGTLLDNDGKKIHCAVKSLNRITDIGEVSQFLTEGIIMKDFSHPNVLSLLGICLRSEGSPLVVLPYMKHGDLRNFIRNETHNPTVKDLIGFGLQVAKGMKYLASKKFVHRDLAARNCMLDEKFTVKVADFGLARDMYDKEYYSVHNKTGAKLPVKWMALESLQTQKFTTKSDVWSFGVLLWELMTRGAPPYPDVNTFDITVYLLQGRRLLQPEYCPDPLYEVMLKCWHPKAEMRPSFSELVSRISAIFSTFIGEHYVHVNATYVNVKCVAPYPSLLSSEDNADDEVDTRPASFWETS

Row | Structure (SMILES) | IC50
1 | COc1cc2nccc(Oc3ccc(NC(=O)NC(=O)Nc4cccc(C(C)=O)c4)cc3)c2cc1OC [Example 261, N-(3-acetylphenyl)-({[4-(6,7-dimethoxy-quinolin-4-yloxy)anilino]carbonyl}amino)-methanamide] | 343 nM
2 | COc1cc2nccc(Oc3ccc(NC(=S)NC(=O)Cc4ccccc4F)cc3Cl)c2cc1OC [Example 152, 1-[3-chloro-4-(6,7-dimethoxyquinolin-4-yloxy)phenyl]-3-[2-(2-fluorophenyl)acetyl]thiourea] | 248 nM
3 | COc1cc2nccc(Oc3ccc(NC(=O)NC(=O)Nc4ccc5c(c4)CCC5)cc3)c2cc1OC [Example 243, N-(2,3-dihydro-1H-5-indenyl)-({[4-(6,7-dimethoxyquinolin-4-yloxy)anilino]carbonyl}amino)-methanamide] | 3010 nM
4 | COc1cc2nccc(Oc3ccc(NC(=O)NC(=O)Cn4ccnn4)cc3Cl)c2cc1OC [Example 123, 1-[3-chloro-4-(6,7-dimethoxyquinolin-4-yloxy)phenyl]-3-(2-[1,2,3]triazol-1-ylacetyl)urea] | 2010 nM
5 | COc1cc2nccc(Oc3ccc(NC(=O)NC(=O)CC4C5CCC4CC5)cc3Cl)c2cc1OC (centres unmarked) [Example 128, 1-(2-bicyclo[2.2.1]hepto-7-ylacetyl)-3-[3-chloro-4-(6,7-dimethoxyquinolin-4-yloxy)phenyl]urea] | 285 nM
6 | COc1cc2nccc(Oc3ccc(NC(=S)NC(=O)Cc4ccccc4C)c(F)c3)c2cc1OC [Example 170, 1-[4-(6,7-dimethoxyquinolin-4-yloxy)-2-fluorophenyl]-3-(2-o-tolylacetyl)thiourea] | 274 nM
7 | COCCC(=O)NC(=S)Nc1ccc(Oc2ccnc3cc(OC)c(OC)cc23)c(Cl)c1 [Example 180, 1-[3-chloro-4-(6,7-dimethoxyquinolin-4-yloxy)phenyl]-3-(3-methoxy-propionyl)thiourea] | 2560 nM
8 | COc1cc2nccc(Oc3ccc(NC(=O)NC(=O)Cc4cc(F)cc(F)c4)c(F)c3)c2cc1OC [Example 141, 1-[2-(3,5-difluorophenyl)acetyl]-3-[4-(6,7-dimethoxyquinolin-4-yloxy)-2-fluorophenyl]urea] | 336 nM
9 | COc1cccc(CC(=O)NC(=S)Nc2ccc(Oc3ccnc4cc(OC)c(OC)cc34)cc2)c1 [Example 184, 1-[4-(6,7-dimethoxyquinolin-4-yloxy)phenyl]-3-[2-(3-methoxyphenyl)acetyl]thiourea] | 268 nM
10 | COc1cc2nccc(Oc3ccc(NC(=O)NC(=O)Nc4ccccc4Br)cc3)c2cc1OC [Example 247, N-(2-bromophenyl)-({[4-(6,7-dimethoxy-quinolin-4-yloxy)anilino]carbonyl}amino)methanamide] | 650 nM
11 | COc1cc2nccc(Oc3ccc(NC(=S)NC(=O)Cc4ccccc4C)cc3Cl)c2cc1OC [Example 149, 1-[3-chloro-4-(6,7-dimethoxyquinolin-4-yloxy)phenyl]-3-(2-o-tolylacetyl)thiourea] | 236 nM
12 | COc1cc2nccc(Oc3ccc(NC(=O)NC(=O)Nc4cccc(F)c4)cc3)c2cc1OC [Example 251, N-(3-fluorophenyl)-({[4-(6,7-dimethoxy-quinolin-4-yloxy)anilino]carbonyl}amino)methanamide] | 386 nM
13 | COc1cc2nccc(Oc3ccc(NC(=S)NC(=O)Cc4cccc(Cl)c4)cc3)c2cc1OC [Example 171, 1-[2-(3-chlorophenyl)acetyl]-3-[4-(6,7-dimethoxyquinolin-4-yloxy)phenyl]thiourea] | 282 nM
14 | COc1cc2nccc(Oc3ccc(NC(=S)NC(=O)Cc4ccccc4Cl)cc3Cl)c2cc1OC [Example 183, 1-[3-chloro-4-(6,7-dimethoxyquinolin-4-yloxy)phenyl]-3-[2-(2-chlorophenyl)acetyl]thiourea] | 224 nM
15 | COc1cc2nccc(Oc3ccc(NC(=O)NC(=O)Nc4cccc(C)n4)cc3)c2cc1OC [Example 234, N-(6-methyl-2-pyridyl)-({[4-(6,7-dimethoxy-quinolin-4-yloxy)anilino]carbonyl}amino)methanamide] | 457 nM
16 | COc1cc2nccc(Oc3ccc(NC(=O)NC(=O)Nc4cccc(C#N)c4)cc3)c2cc1OC [Example 239, N-(3-cyanophenyl)-({[4-(6,7-dimethoxy-quinolin-4-yloxy)anilino]carbonyl}amino)-methanamide] | 1580 nM
17 | COc1cc2nccc(Oc3ccc(NC(=O)CC(=O)Nc4cccc(O)c4)cc3)c2cc1OC [Example 220, N-[4-(6,7-dimethoxyquinolin-4-yloxy)phenyl]-N′-(3-hydroxyphenyl)malonamide] | 297 nM
18 | COc1cc2nccc(Oc3ccc(NC(=S)NC(=O)Cc4c(F)ccc(F)c4F)cc3Cl)c2cc1OC [Example 207, 1-[3-chloro-4-(6,7-dimethoxyquinolin-4-yloxy)phenyl]-3-[2-(2,3,6-trifluorophenyl)acetyl]-thiourea] | 300 nM
19 | COc1cc2nccc(Oc3ccc(NC(=O)NC(=O)Nc4ccc(F)c(F)c4)cc3)c2cc1OC [Example 264, N-(3,4-difluorophenyl)-({[4-(6,7-dimethoxy-quinolin-4-yloxy)anilino]carbonyl}amino)methanamide] | 347 nM
20 | COc1cc2nccc(Oc3ccc(NC(=S)NC(=O)Cc4ccc(C)cc4)cc3F)c2cc1OC [Example 190, 1-[4-(6,7-dimethoxyquinolin-4-yloxy)-3-fluorophenyl]-3-(2-p-tolylacetyl)thiourea] | 224 nM
21 | COc1cc2nccc(Oc3ccc(NC(=O)NC(=O)Cc4c(F)cccc4F)cc3F)c2cc1OC [Example 135, 1-[2-(2,6-difluorophenyl)acetyl]-3-[4-(6,7-dimethoxyquinolin-4-yloxy)-3-fluorophenyl]urea] | 226 nM

Stronger by IC50, values ahead:

Row | IC50 | Structure (SMILES)
22 | 51.4 nM | COc1cc2c(Oc3ccc(NC(=O)NC(=O)Cc4ccc(F)cc4)cc3F)ccnc2cc1OCCN1CCN(C)CC1 [Example 49, 1-(3-fluoro-4-{6-methoxy-7-[2-(4-methyl-piperazin-1-yl)-ethoxy]quinolin-4-yloxy}phenyl)-3-[2-(4-fluorophenyl)acetyl]urea]
23 | 46.3 nM | COc1cc2nccc(Oc3ccc(NC(=O)NC(=O)Cc4ccc(F)cc4F)cc3F)c2cc1OC [Example 34, 1-[2-(2,4-difluorophenyl)acetyl]-3-[4-(6,7-dimethoxyquinolin-4-yloxy)-3-fluorophenyl]urea]
24 | 203 nM | COc1cc2c(Oc3ccc(NC(=O)NC(=O)Cc4ccc(F)cc4)c(F)c3)ccnc2cc1OCCCN1CCN(C)CC1 [Example 51, 1-(2-fluoro-4-{6-methoxy-7-[3-(4-methyl-piperazin-1-yl)-propoxy]quinolin-4-yloxy}phenyl)-3-[2-(4-fluorophenyl)acetyl]urea]
25 | 188 nM | COc1cc2nccc(Oc3ccc(NC(=O)NC(=O)Cc4ccsc4)cc3Cl)c2cc1OC [Example 21, 1-[3-chloro-4-(6,7-dimethoxyquinolin-4-yloxy)-phenyl]-3-(2-thiophen-3-ylacetyl)urea]
26 | 178 nM | COc1cc2nccc(Oc3ccc(NC(=S)NC(=O)Cc4cccc(C)c4)cc3)c2cc1OC [Example 77, 1-[4-(6,7-dimethoxyquinolin-4-yloxy)phenyl]-3-(2-m-tolylacetyl)thiourea]
27 | 12.5 nM | COc1cc2c(Oc3ccc(NC(=O)CC(=O)Nc4ccc(F)cc4)cc3F)ccnc2cc1OCCCN1CCOCC1 [Example 269, N-{3-fluoro-4-[6-methoxy-7-(3-morpholin-4-yl-propoxy)quinolin-4-yloxy]phenyl}-N′-(4-fluorophenyl)-malonamide]
28 | 140 nM | COc1cc2nccc(Oc3ccc(NC(=S)NC(=O)CCc4ccccc4C)cc3F)c2cc1OC [Example 64, 1-[4-(6,7-dimethoxyquinolin-4-yloxy)-3-fluoro-phenyl]-3-(3-o-tolylpropionyl)thiourea]
29 | 24.1 nM | COc1cc2c(Oc3ccc(NC(=O)NC(=O)Cc4ccccc4F)cc3F)ccnc2cc1OCCCN1CCCCC1 [Example 295, 1-{3-Fluoro-4-[6-methoxy-7-(3-piperidin-1-yl-propoxy)-quinolin-4-yloxy]-phenyl}-3-[2-(2-fluoro-phenyl)-acetyl]-urea]
30 | 127 nM | COc1cc2c(Oc3ccc(NC(=S)NC(=O)Cc4ccccc4F)cc3F)ccnc2cc1OCC(O)CN1CCCC1 (centres unmarked) [Example 319, 1-{3-Fluoro-4-[7-(2-hydroxy-3-pyrrolidin-1-yl-propoxy)-6-methoxy-quinolin-4-yloxy]-phenyl}-3-[2-(2-fluoro-phenyl)-acetyl]-thiourea]
31 | 31.6 nM | COc1cc2nccc(Oc3ccc(NC(=O)CC(=O)Nc4ccc(F)cc4F)cc3Cl)c2cc1OC [Example 6, N-[3-chloro-4-(6,7-dimethoxyquinolin-4-yloxy)-phenyl]-N′-(2,4-difluorophenyl)malonamide]
32 | 20.4 nM | COc1cc2c(Oc3ccc(NC(=S)NC(=O)Cc4cccc(F)c4)cc3F)ccnc2cc1OCCN1CCOCC1 [Example 279, 1-{3-Fluoro-4-[6-methoxy-7-(2-morpholin-4-yl-ethoxy)-quinolin-4-yloxy]-phenyl}-3-[2-(3-fluoro-phenyl)-acetyl]-thiourea]
